Data reported in article PMC7985749 (CNS Drugs, 2021).

Experiments:
[1] = Rodent models: therapeutic effect versus hematopoietic impact; assay type: in vivo; details: rodents
[2] = Adverse events / TEAEs, MAD cohort; assay type: in vivo, human
[3] = Adverse events / TEAEs, SAD cohort; assay type: in vivo, human

Q: What does the source list for `Nc1nnc(CN[C@@H]2C[C@H]2c2ccc(OCc3ccccc3)cc2)o1` [vafidemstat]?
A: Window between the therapeutic effect and hematopoietic impact [1]: 30 fold; Number of AEs related to the study treatment ([2]; MAD stage, healthy young volunteers, with vafidemstat): 44; Number of TEAEs (% of total TEAEs): Asthenia ([2]; MAD, 0.2 mg/day, n = 6): 2 (3.3) n (%); Number of TEAEs (% of total TEAEs): Dizziness postural ([2]; MAD, 0.2 mg/day, n = 6): 1(1.6) n (%); Number of TEAEs (% of total TEAEs): Feeling hot ([2]; MAD, 0.2 mg/day, n = 6): 1(1.6) n (%); Number of TEAEs (% of total TEAEs): Headache ([2]; MAD, 0.2 mg/day, n = 6): 3 (4.9) n (%); Number of TEAEs (% of total TEAEs): Hematoma ([2]; MAD, 0.2 mg/day, n = 6): 1 (1.6) n (%); Number of TEAEs (% of total TEAEs): Muscle spasms ([2]; MAD, 0.2 mg/day, n = 6): 1(1.6) n (%); Number of TEAEs (% of total TEAEs): Palpitations ([2]; MAD, 0.2 mg/day, n = 6): 1 (1.6) n (%); Number of TEAEs (% of total TEAEs): Total ([2]; MAD, 0.2 mg/day, n = 6): 10 (16.4) n (%); Number of TEAEs (% of total TEAEs): Apathy ([2]; MAD, 0.6 mg/day, n = 6): 1 (1.6) n (%); Number of TEAEs (% of total TEAEs): Asthenia ([2]; MAD, 0.6 mg/day, n = 6): 1 (1.6) n (%); Number of TEAEs (% of total TEAEs): Blunted affect ([2]; MAD, 0.6 mg/day, n = 6): 2 (3.3) n (%); Number of TEAEs (% of total TEAEs): Daydreaming ([2]; MAD, 0.6 mg/day, n = 6): 1 (1.6) n (%); Number of TEAEs (% of total TEAEs): Dyspepsia ([2]; MAD, 0.6 mg/day, n = 6): 1 (1.6) n (%); Number of TEAEs (% of total TEAEs): Euphoric mood ([2]; MAD, 0.6 mg/day, n = 6): 1 (1.6) n (%); Number of TEAEs (% of total TEAEs): Feeling drunk ([2]; MAD, 0.6 mg/day, n = 6): 1 (1.6) n (%); Number of TEAEs (% of total TEAEs): Headache ([2]; MAD, 0.6 mg/day, n = 6): 1 (1.6) n (%); Number of TEAEs (% of total TEAEs): Somnolence ([2]; MAD, 0.6 mg/day, n = 6): 2 (3.3) n (%); Number of TEAEs (% of total TEAEs): Total ([2]; MAD, 0.6 mg/day, n = 6): 11 (18.0) n (%); Number of TEAEs (% of total TEAEs): Asthenia ([2]; MAD, 1.0 mg/day, n = 6): 1 (1.6) n (%); Number of TEAEs (% of total TEAEs): Constipation ([2]; MAD, 1.0 mg/day, n = 6): 1 (1.6) n (%); Number of TEAEs (% of total TEAEs): Dizziness postural ([2]; MAD, 1.0 mg/day, n = 6): 1 (1.6) n (%); Number of TEAEs (% of total TEAEs): Dry mouth ([2]; MAD, 1.0 mg/day, n = 6): 4 (6.5) n (%); Number of TEAEs (% of total TEAEs): Feeling cold ([2]; MAD, 1.0 mg/day, n = 6): 3 (4.9) n (%); Number of TEAEs (% of total TEAEs): Headache ([2]; MAD, 1.0 mg/day, n = 6): 2 (3.3) n (%); Number of TEAEs (% of total TEAEs): Nasopharyngitis ([2]; MAD, 1.0 mg/day, n = 6): 1 (1.6) n (%); Number of TEAEs (% of total TEAEs): Total ([2]; MAD, 1.0 mg/day, n = 6): 13 (21.3) n (%); Number of TEAEs (% of total TEAEs): Dry mouth ([2]; MAD, 1.5 mg/day, n = 6): 3 (4.9) n (%); Number of TEAEs (% of total TEAEs): Headache ([2]; MAD, 1.5 mg/day, n = 6): 2 (3.3) n (%); Number of TEAEs (% of total TEAEs): Salivary hypersecretion ([2]; MAD, 1.5 mg/day, n = 6): 1 (1.6) n (%); Number of TEAEs (% of total TEAEs): Somnolence ([2]; MAD, 1.5 mg/day, n = 6): 1 (1.6) n (%); Number of TEAEs (% of total TEAEs): Total ([2]; MAD, 1.5 mg/day, n = 6): 7 (11.5) n (%); Number of TEAEs (% of total TEAEs): Dry mouth ([2]; MAD, 2.5 mg/day, n = 6): 1 (1.6) n (%); Number of TEAEs (% of total TEAEs): Total ([2]; MAD, 2.5 mg/day, n = 6): 1 (1.6) n (%); Number of TEAEs (% of total TEAEs): Headache ([2]; MAD, 4.0 mg/day, n = 3): 2 (3.3) n (%); Number of TEAEs (% of total TEAEs): Total ([2]; MAD, 4.0 mg/day, n = 3): 2 (3.3) n (%); Number of treatment-related AEs ([3]; SAD stage, subjects receiving vafidemstat): 12; Number of TEAEs (% of total TEAEs): Headache ([3]; SAD, 0.2 mg, n = 6): 1 (7.7) n (%); Number of TEAEs (% of total TEAEs): Total ([3]; SAD, 0.2 mg, n = 6): 1 (7.7) n (%); Number of TEAEs (% of total TEAEs): Euphoric mood ([3]; SAD, 0.6 mg, n = 6): 1 (7.7) n (%); Number of TEAEs (% of total TEAEs): Feeling hot ([3]; SAD, 0.6 mg, n = 6): 1 (7.7) n (%); Number of TEAEs (% of total TEAEs): Headache ([3]; SAD, 0.6 mg, n = 6): 1 (7.7) n (%); Number of TEAEs (% of total TEAEs): Total ([3]; SAD, 0.6 mg, n = 6): 3 (23.1) n (%); Number of TEAEs (% of total TEAEs): Musculoskeletal stiffness ([3]; SAD, 1.5 mg, n = 6): 1 (7.7) n (%); Number of TEAEs (% of total TEAEs): Paresthesia ([3]; SAD, 1.5 mg, n = 6): 1 (7.7) n (%); Number of TEAEs (% of total TEAEs): Total ([3]; SAD, 1.5 mg, n = 6): 2 (15.4) n (%); Number of TEAEs (% of total TEAEs): Abdominal discomfort ([3]; SAD, 2.5 mg, n = 6): 1 (7.7) n (%); Number of TEAEs (% of total TEAEs): Asthenia ([3]; SAD, 2.5 mg, n = 6): 1 (7.7) n (%); Number of TEAEs (% of total TEAEs): Dry mouth ([3]; SAD, 2.5 mg, n = 6): 1 (7.7) n (%); Number of TEAEs (% of total TEAEs): Total ([3]; SAD, 2.5 mg, n = 6): 3 (23.1) n (%); Number of TEAEs (% of total TEAEs): Blunted affect ([3]; SAD, 4.0 mg, n = 6): 1 (7.7) n (%); Number of TEAEs (% of total TEAEs): Euphoric mood ([3]; SAD, 4.0 mg, n = 6): 1 (7.7) n (%); Number of TEAEs (% of total TEAEs): Headache ([3]; SAD, 4.0 mg, n = 6): 1 (7.7) n (%); Number of TEAEs (% of total TEAEs): Total ([3]; SAD, 4.0 mg, n = 6): 3 (23.1) n (%)
